From patent US20230085307A1, “PYRIDAZINONE COMPOUND AND HERBICIDE” (NISSAN CHEMICAL CORPORATION, priority 2019, published 2023)

Experiments:
chickweed [1] = assay: Test Example 4: herbicidal effect by soil treatment (Table 19, symbol P); type: in vivo, common chickweed (Stellaria media); conditions: amount of applied herbicide 320 g/ha
In short: (§1)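 Three weeks of greenhouse growth at 25° C. to 30° C. followed a uniform surface spray of water-diluted emulsion at a predetermined herbicide amount. Seeds had been sown beforehand under about 1.5 cm of sterilized diluvial soil. Grading followed criteria set out in an earlier test.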

false cleavers [2] = assay: Test Example 4: herbicidal effect by soil treatment (Table 19, symbol Q); type: in vivo, false cleavers (Galium spurium); conditions: amount of applied herbicide 320 g/ha
In short: as §1

blackgrass [3] = assay: Test Example 4: herbicidal effect by soil treatment (Table 19, symbol J); type: in vivo, blackgrass (Alopecurus myosuroides); conditions: amount of applied herbicide 320 g/ha
In short: as §1

barnyard grass [4] = assay: Test Example 4: herbicidal effect by soil treatment (Table 19, symbol H); type: in vivo, barnyard grass (Echinochloa crus-galli); conditions: amount of applied herbicide 320 g/ha
In short: as §1

southern crabgrass [5] = assay: Test Example 5: herbicidal effect by foliage application, plastic box (Table 20, symbol F); type: in vivo, southern crabgrass (Digitaria ciliaris); conditions: foliage application, 320 g/ha, three weeks after application
In short: (§2)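 Plants sown in sterilized diluvial soil and grown 14 days in a greenhouse at 25° C to 30° C, then sprayed on the foliage with the compound's emulsion diluted in water to a predetermined herbicide amount. Injury to weeds and crops scored three weeks after application on a visual rating scale.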

redroot pigweed [6] = assay: Test Example 4: herbicidal effect by soil treatment (Table 19, symbol N); type: in vivo, redroot pigweed (Amaranthus retroflexus); conditions: amount of applied herbicide 320 g/ha
In short: as §1

Japanese bulrush [7] = assay: Test Example 2: herbicidal activity, application during weed generation under submerged conditions (Table 17, symbol B); type: in vivo, Japanese bulrush (Schoenoplectus juncoides); conditions: AAH 320 g/ha; application during weed generation, submerged conditions
In short: (§3)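 Wagner pot, alluvial soil, 4 cm flood; mixed sowing of all species; greenhouse 25° C.–30° C. Emulsifiable formulation, water-diluted to predetermined dose, applied to paddy water at 1–2 leaf stage. Effect rated at 3 wk using the earlier test's scoring criteria.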

southern crabgrass [8] = assay: Test Example 4: herbicidal effect by soil treatment (Table 19, symbol F); type: in vivo, southern crabgrass (Digitaria ciliaris); conditions: amount of applied herbicide 320 g/ha
In short: as §1

redroot pigweed [9] = assay: Test Example 5: herbicidal effect by foliage application, plastic box (Table 20, symbol N); type: in vivo, redroot pigweed (Amaranthus retroflexus); conditions: foliage application, 320 g/ha, three weeks after application
In short: as §2

lambsquarters [10] = assay: Test Example 4: herbicidal effect by soil treatment (Table 19, symbol O); type: in vivo, lambsquarters (Chenopodium album); conditions: amount of applied herbicide 320 g/ha
In short: as §1

windgrass [11] = assay: Test Example 5: herbicidal effect by foliage application, plastic box (Table 20, symbol L); type: in vivo, windgrass (Apera spica-venti); conditions: foliage application, 320 g/ha, three weeks after application
In short: as §2

velvetleaf [12] = assay: Test Example 4: herbicidal effect by soil treatment (Table 19, symbol M); type: in vivo, velvetleaf (Abutilon theophrasti); conditions: amount of applied herbicide 320 g/ha
In short: as §1

windgrass [13] = assay: Test Example 4: herbicidal effect by soil treatment (Table 19, symbol L); type: in vivo, windgrass (Apera spica-venti); conditions: amount of applied herbicide 320 g/ha
In short: as §1

oval-leafed pondweed [14] = assay: Test Example 1: herbicidal activity, application before weed generation under submerged conditions (Table 16, symbol C); type: in vivo, oval-leafed pondweed (Monochoria vaginalis); conditions: amount of applied herbicide 320 g/ha
In short: (§4)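 Alluvial soil was flooded to 4 cm depth, weed seeds were sown mixed and 2.5-leaf rice seedlings were transplanted. On sowing day, the compound's emulsion, diluted in water to a set dose, was applied to the water surface. Plants grew at 25–30 °C and were scored 0–5 after three weeks.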

chickweed [15] = assay: Test Example 5: herbicidal effect by foliage application, plastic box (Table 20, symbol P); type: in vivo, common chickweed (Stellaria media); conditions: foliage application, 320 g/ha, three weeks after application
In short: as §2

oval-leafed pondweed [16] = assay: Test Example 2: herbicidal activity, application during weed generation under submerged conditions (Table 17, symbol C); type: in vivo, oval-leafed pondweed (Monochoria vaginalis); conditions: AAH 320 g/ha; application during weed generation, submerged conditions
In short: as §3

blackgrass [17] = assay: Test Example 5: herbicidal effect by foliage application, plastic box (Table 20, symbol J); type: in vivo, blackgrass (Alopecurus myosuroides); conditions: foliage application, 320 g/ha, three weeks after application
In short: as §2

persian speedwell [18] = assay: Test Example 5: herbicidal effect by foliage application, plastic box (Table 20, symbol R); type: in vivo, Persian speedwell (Veronica persica); conditions: foliage application, 320 g/ha, three weeks after application
In short: as §2

wild oat [19] = assay: Test Example 5: herbicidal effect by foliage application, plastic box (Table 20, symbol I); type: in vivo, wild oat (Avena fatua); conditions: foliage application, 320 g/ha, three weeks after application
In short: as §2

Italian ryegrass [20] = assay: Test Example 5: herbicidal effect by foliage application, plastic box (Table 20, symbol K); type: in vivo, Italian ryegrass (Lolium multiflorum); conditions: foliage application, 320 g/ha, three weeks after application
In short: as §2

barnyard grass [21] = assay: Test Example 5: herbicidal effect by foliage application, plastic box (Table 20, symbol H); type: in vivo, barnyard grass (Echinochloa crus-galli); conditions: foliage application, 320 g/ha, three weeks after application
In short: as §2

velvetleaf [22] = assay: Test Example 5: herbicidal effect by foliage application, plastic box (Table 20, symbol M); type: in vivo, velvetleaf (Abutilon theophrasti); conditions: foliage application, 320 g/ha, three weeks after application
In short: as §2

lambsquarters [23] = assay: Test Example 5: herbicidal effect by foliage application, plastic box (Table 20, symbol O); type: in vivo, lambsquarters (Chenopodium album); conditions: foliage application, 320 g/ha, three weeks after application
In short: as §2

persian speedwell [24] = assay: Test Example 4: herbicidal effect by soil treatment (Table 19, symbol R); type: in vivo, Persian speedwell (Veronica persica); conditions: amount of applied herbicide 320 g/ha
In short: as §1

late watergrass [25] = assay: Test Example 1: herbicidal activity, application before weed generation under submerged conditions (Table 16, symbol A); type: in vivo, late watergrass (Echinochloa oryzicola); conditions: amount of applied herbicide 320 g/ha
In short: as §4

Italian ryegrass [26] = assay: Test Example 4: herbicidal effect by soil treatment (Table 19, symbol K); type: in vivo, Italian ryegrass (Lolium multiflorum); conditions: amount of applied herbicide 320 g/ha
In short: as §1

wild oat [27] = assay: Test Example 4: herbicidal effect by soil treatment (Table 19, symbol I); type: in vivo, wild oat (Avena fatua); conditions: amount of applied herbicide 320 g/ha
In short: as §1

late watergrass [28] = assay: Test Example 2: herbicidal activity, application during weed generation under submerged conditions (Table 17, symbol A); type: in vivo, late watergrass (Echinochloa oryzicola); conditions: AAH 320 g/ha; application during weed generation, submerged conditions
In short: as §3

green foxtail [29] = assay: Test Example 4: herbicidal effect by soil treatment (Table 19, symbol G); type: in vivo, green foxtail (Setaria viridis); conditions: amount of applied herbicide 320 g/ha
In short: as §1

Japanese bulrush [30] = assay: Test Example 1: herbicidal activity, application before weed generation under submerged conditions (Table 16, symbol B); type: in vivo, Japanese bulrush (Schoenoplectus juncoides); conditions: amount of applied herbicide 320 g/ha
In short: as §4

false cleavers [31] = assay: Test Example 5: herbicidal effect by foliage application, plastic box (Table 20, symbol Q); type: in vivo, false cleavers (Galium spurium); conditions: foliage application, 320 g/ha, three weeks after application
In short: as §2

green foxtail [32] = assay: Test Example 5: herbicidal effect by foliage application, plastic box (Table 20, symbol G); type: in vivo, green foxtail (Setaria viridis); conditions: foliage application, 320 g/ha, three weeks after application
In short: as §2

`CCCC(=O)Oc1c(C)nn(C)c(=O)c1-c1c(-c2ccc(F)cc2)sc2cc(OC)ccc12` [3-064] was tested, and the “P: chickweed, herbicidal effect grade” value (chickweed [1]) was 4 (Herbicidal rate of 70% or more and less than 90%), the “Q: false cleavers, herbicidal effect grade” value (false cleavers [2]) was 0 (Herbicidal rate of 5% or less (almost no effect)) and the “J: blackgrass, herbicidal effect grade” value (blackgrass [3]) was 0 (Herbicidal rate of 5% or less (almost no effect)). For the same compound, the “H: barnyard grass, herbicidal effect grade” value (barnyard grass [4]) was 0 (Herbicidal rate of 5% or less (almost no effect)), the “F: southern crabgrass, herbicidal effect grade” value (southern crabgrass [5]) was 0 (Herbicidal rate of 5% or less (almost no effect)) and the “N: redroot pigweed, herbicidal effect grade” value (redroot pigweed [6]) was 2 (Herbicidal rate of 20% or more and less than 40%). The “herbicidal effect rating, B: Japanese bulrush” value (Japanese bulrush [7]) was 1 (Herbicidal rate of 5% or more and less than 20%), the “F: southern crabgrass, herbicidal effect grade” value (southern crabgrass [8]) was 0 (Herbicidal rate of 5% or less (almost no effect)) and the “N: redroot pigweed, herbicidal effect grade” value (redroot pigweed [9]) was 0 (Herbicidal rate of 5% or less (almost no effect)). For the same compound, the “O: lambsquarters, herbicidal effect grade” value (lambsquarters [10]) was 3 (Herbicidal rate of 40% or more and less than 70%), the “L: windgrass, herbicidal effect grade” value (windgrass [11]) was 0 (Herbicidal rate of 5% or less (almost no effect)) and the “M: velvetleaf, herbicidal effect grade” value (velvetleaf [12]) was 0 (Herbicidal rate of 5% or less (almost no effect)). The “L: windgrass, herbicidal effect grade” value (windgrass [13]) was 0 (Herbicidal rate of 5% or less (almost no effect)), the “Herbicidal effect, C: oval-leafed pondweed” value (oval-leafed pondweed [14]) was 4 (Herbicidal rate of 70% or more and less than 90%) and the “P: chickweed, herbicidal effect grade” value (chickweed [15]) was 5 (Herbicidal rate of 90% or more (almost completely withered)). For the same compound, the “herbicidal effect rating, C: oval-leafed pondweed” value (oval-leafed pondweed [16]) was 3 (Herbicidal rate of 40% or more and less than 70%), the “J: blackgrass, herbicidal effect grade” value (blackgrass [17]) was 0 (Herbicidal rate of 5% or less (almost no effect)) and the “R: persian speedwell, herbicidal effect grade” value (persian speedwell [18]) was 4 (Herbicidal rate of 70% or more and less than 90%). The “I: wild oat, herbicidal effect grade” value (wild oat [19]) was 0 (Herbicidal rate of 5% or less (almost no effect)), the “K: Italian ryegrass, herbicidal effect grade” value (Italian ryegrass [20]) was 0 (Herbicidal rate of 5% or less (almost no effect)) and the “H: barnyard grass, herbicidal effect grade” value (barnyard grass [21]) was 0 (Herbicidal rate of 5% or less (almost no effect)). For the same compound, the “M: velvetleaf, herbicidal effect grade” value (velvetleaf [22]) was 1 (Herbicidal rate of 5% or more and less than 20%), the “O: lambsquarters, herbicidal effect grade” value (lambsquarters [23]) was 2 (Herbicidal rate of 20% or more and less than 40%) and the “R: persian speedwell, herbicidal effect grade” value (persian speedwell [24]) was 4 (Herbicidal rate of 70% or more and less than 90%). For the same compound, the “Herbicidal effect, A: late watergrass” value (late watergrass [25]) was 0 (Herbicidal rate of 5% or less (almost no effect)), the “K: Italian ryegrass, herbicidal effect grade” value (Italian ryegrass [26]) was 0 (Herbicidal rate of 5% or less (almost no effect)) and the “I: wild oat, herbicidal effect grade” value (wild oat [27]) was 0 (Herbicidal rate of 5% or less (almost no effect)). For the same compound, the “herbicidal effect rating, A: late watergrass” value (late watergrass [28]) was 0 (Herbicidal rate of 5% or less (almost no effect)), the “G: green foxtail, herbicidal effect grade” value (green foxtail [29]) was 0 (Herbicidal rate of 5% or less (almost no effect)) and the “Herbicidal effect, B: Japanese bulrush” value (Japanese bulrush [30]) was 3 (Herbicidal rate of 40% or more and less than 70%). The “Q: false cleavers, herbicidal effect grade” value (false cleavers [31]) was 0 (Herbicidal rate of 5% or less (almost no effect)) and the “G: green foxtail, herbicidal effect grade” value (green foxtail [32]) was 0 (Herbicidal rate of 5% or less (almost no effect)).
